Results from US11130793B2, “GLP-1/GLP-2 dual agonists” (Zealand Pharma A/S, priority 2016, dated 2021).
Square brackets hold non-standard residues; d marks the D form. Peptide text beside a SMILES is read from it. Aib = CC(C)(N)C(=O)O

Key:
[1] = target: T1, human GLP-1 receptor (Homo sapiens, UniProt P43220); experiment: GLP-1 receptor potency assay (cAMP AlphaScreen, HEK293 cells stably expressing GLP-1R); format: cell-based; details: cAMP response, HEK293 cells expressing human GLP-1R; read-out: EC50 GLP-1
T1 construct: expressed in transfected cells
T1 sequence (P43220 24-463): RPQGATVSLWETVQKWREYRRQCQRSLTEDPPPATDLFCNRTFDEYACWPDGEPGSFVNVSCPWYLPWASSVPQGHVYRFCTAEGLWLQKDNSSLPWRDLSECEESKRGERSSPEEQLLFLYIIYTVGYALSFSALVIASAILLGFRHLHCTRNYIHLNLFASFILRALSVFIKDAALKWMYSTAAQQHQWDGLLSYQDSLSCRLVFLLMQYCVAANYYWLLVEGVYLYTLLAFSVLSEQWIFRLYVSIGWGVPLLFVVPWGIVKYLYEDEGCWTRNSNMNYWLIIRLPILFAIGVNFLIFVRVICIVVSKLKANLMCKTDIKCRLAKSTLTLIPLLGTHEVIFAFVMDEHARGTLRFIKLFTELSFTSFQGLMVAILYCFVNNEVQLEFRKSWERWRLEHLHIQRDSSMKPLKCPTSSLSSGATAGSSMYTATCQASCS
Method in brief: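 cAMP accumulation was quantified by AlphaScreen in G418-selected HEK293 cells stably transfected with human GLP-1R cDNA. Concentration-response data were normalized between vehicle and positive control. EC50 and maximal response came from 4PL curve fitting.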

[2] = target: T2, human GLP-2 receptor (Homo sapiens, UniProt O95838, D470N); experiment: GLP-2 receptor potency assay (cAMP AlphaScreen, HEK293 cells stably expressing GLP-2R); format: cell-based; details: cAMP response, HEK293 cells expressing human GLP-2R
T2 sequence (O95838 1-553 D470N): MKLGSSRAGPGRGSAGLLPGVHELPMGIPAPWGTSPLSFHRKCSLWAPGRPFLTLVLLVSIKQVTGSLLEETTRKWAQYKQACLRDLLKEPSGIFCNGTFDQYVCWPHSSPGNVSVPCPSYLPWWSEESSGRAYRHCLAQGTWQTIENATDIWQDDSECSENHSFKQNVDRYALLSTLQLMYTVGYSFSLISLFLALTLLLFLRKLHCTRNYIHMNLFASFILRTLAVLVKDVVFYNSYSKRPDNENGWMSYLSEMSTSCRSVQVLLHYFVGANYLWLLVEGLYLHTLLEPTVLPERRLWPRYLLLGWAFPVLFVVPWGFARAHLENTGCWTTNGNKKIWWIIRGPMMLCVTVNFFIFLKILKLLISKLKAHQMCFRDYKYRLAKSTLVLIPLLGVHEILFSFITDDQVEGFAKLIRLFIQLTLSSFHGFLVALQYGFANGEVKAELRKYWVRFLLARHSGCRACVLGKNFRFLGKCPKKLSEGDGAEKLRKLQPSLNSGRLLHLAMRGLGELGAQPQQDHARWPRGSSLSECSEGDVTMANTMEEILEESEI
Method in brief: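 EC50 and maximal response were fitted with a 4PL model after normalization to positive control and vehicle. cAMP accumulation was quantified by AlphaScreen in a stable HEK293 clone transfected with human GLP-2 receptor.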

Row | Compound | EC50 [1] | EC50 [2]
1 | H-HGEGSFSSELATILDEQAARDFIAWLIQHKITD-NH2 [Compound 40] | 1.4 nM | 0.05 nM
2 | CC[C@H](C)[C@H](NC(=O)[C@H](Cc1ccccc1)NC(=O)[C@H](CC(=O)O)NC(=O)[C@H](CCCNC(=N)N)NC(=O)[C@H](C)NC(=O)[C@H](C)NC(=O)[C@H](CCC(N)=O)NC(=O)[C@H](CCC(=O)O)NC(=O)[C@H](CC(=O)O)NC(=O)[C@H](CC(C)C)NC(=O)[C@@H](NC(=O)[C@@H](NC(=O)[C@H](C)NC(=O)[C@H](CC(C)C)NC(=O)[C@H](CCC(=O)O)NC(=O)[C@H](CC(=O)O)NC(=O)[C@@H](NC(=O)[C@H](Cc1ccccc1)NC(=O)[C@@H](NC(=O)CNC(=O)[C@H](CCC(=O)O)NC(=O)C(C)(C)NC(=O)[C@@H](N)Cc1c[nH]cn1)[C@@H](C)O)[C@@H](C)O)[C@@H](C)O)[C@@H](C)CC)C(=O)N[C@@H](C)C(=O)N[C@@H](Cc1c[nH]c2ccccc12)C(=O)N[C@@H](CC(C)C)C(=O)N[C@@H](CCC(N)=O)C(=O)N[C@@H](C)C(=O)N[C@@H](CCC(N)=O)C(=O)N[C@@H](CCCCN)C(=O)N[C@H](C(=O)N[C@H](C(=O)N[C@@H](CC(=O)O)C(=O)O)[C@@H](C)O)[C@@H](C)CC [Compound 29] (H-H[Aib]EGTFTDELATILDEQAARDFIAWLQAQKITD-OH) | 0.044 nM | 0.11 nM
3 | CC[C@H](C)[C@H](NC(=O)[C@H](Cc1ccccc1)NC(=O)[C@H](CC(=O)O)NC(=O)[C@H](CCCNC(=N)N)NC(=O)[C@H](C)NC(=O)[C@H](C)NC(=O)[C@H](CCC(N)=O)NC(=O)[C@H](CCC(=O)O)NC(=O)[C@H](CC(=O)O)NC(=O)[C@H](CC(C)C)NC(=O)[C@@H](NC(=O)[C@@H](NC(=O)[C@H](C)NC(=O)[C@H](CC(C)C)NC(=O)[C@H](CCC(=O)O)NC(=O)[C@H](CO)NC(=O)[C@@H](NC(=O)[C@H](Cc1ccccc1)NC(=O)[C@H](CO)NC(=O)CNC(=O)[C@H](CCC(=O)O)NC(=O)C(C)(C)NC(=O)[C@@H](N)Cc1c[nH]cn1)[C@@H](C)O)[C@@H](C)O)[C@@H](C)CC)C(=O)N[C@@H](C)C(=O)N[C@@H](Cc1c[nH]c2ccccc12)C(=O)N[C@@H](CC(C)C)C(=O)N[C@@H](CCC(N)=O)C(=O)N[C@@H](C)C(=O)N[C@@H](Cc1c[nH]cn1)C(=O)N[C@@H](CCCCN)C(=O)N[C@H](C(=O)N[C@H](C(=O)N[C@@H](CC(=O)O)C(=O)O)[C@@H](C)O)[C@@H](C)CC [Compound 24] (H-H[Aib]EGSFTSELATILDEQAARDFIAWLQAHKITD-OH) | 0.042 nM | 0.049 nM

Compounds with a lower EC50 [1], results first:

Row | EC50 [1] | EC50 [2] | Compound
4 | 0.016 nM | 0.083 nM | CC[C@H](C)[C@H](NC(=O)[C@H](Cc1ccccc1)NC(=O)[C@H](CC(=O)O)NC(=O)[C@H](CCCNC(=N)N)NC(=O)[C@H](C)NC(=O)[C@H](C)NC(=O)[C@H](CCC(N)=O)NC(=O)[C@H](CCC(=O)O)NC(=O)[C@H](CC(=O)O)NC(=O)[C@H](CC(C)C)NC(=O)[C@@H](NC(=O)[C@@H](NC(=O)[C@H](C)NC(=O)[C@H](CC(C)C)NC(=O)[C@H](CCC(=O)O)NC(=O)[C@H](CO)NC(=O)[C@@H](NC(=O)[C@H](Cc1ccccc1)NC(=O)[C@@H](NC(=O)CNC(=O)[C@H](CCC(=O)O)NC(=O)C(C)(C)NC(=O)[C@@H](N)Cc1c[nH]cn1)[C@@H](C)O)[C@@H](C)O)[C@@H](C)O)[C@@H](C)CC)C(=O)N[C@@H](C)C(=O)N[C@@H](Cc1c[nH]c2ccccc12)C(=O)N[C@@H](CC(C)C)C(=O)N[C@@H](CCC(N)=O)C(=O)N[C@@H](C)C(=O)N[C@@H](Cc1c[nH]cn1)C(=O)N[C@@H](CCCCN)C(=O)N[C@H](C(=O)N[C@H](C(=O)N[C@@H](CC(=O)O)C(=O)O)[C@@H](C)O)[C@@H](C)CC [Compound 13] (H-H[Aib]EGTFTSELATILDEQAARDFIAWLQAHKITD-OH)
5 | 0.006 nM | 0.054 nM | CC[C@H](C)[C@H](NC(=O)[C@H](Cc1ccccc1)NC(=O)[C@H](CC(=O)O)NC(=O)[C@H](CCCNC(=N)N)NC(=O)[C@H](C)NC(=O)[C@H](C)NC(=O)[C@H](CCC(N)=O)NC(=O)[C@H](CCC(=O)O)NC(=O)[C@H](CC(=O)O)NC(=O)[C@H](CC(C)C)NC(=O)[C@@H](NC(=O)[C@@H](NC(=O)[C@H](C)NC(=O)[C@H](CC(C)C)NC(=O)[C@H](CCC(=O)O)NC(=O)[C@H](CO)NC(=O)[C@@H](NC(=O)[C@H](Cc1ccccc1)NC(=O)[C@@H](NC(=O)CNC(=O)[C@H](CCC(=O)O)NC(=O)C(C)(C)NC(=O)[C@@H](N)Cc1c[nH]cn1)[C@@H](C)O)[C@@H](C)O)[C@@H](C)O)[C@@H](C)CC)C(=O)N[C@@H](C)C(=O)N[C@@H](Cc1c[nH]c2ccccc12)C(=O)N[C@@H](CC(C)C)C(=O)N[C@H](C(=O)N[C@@H](CO)C(=O)N[C@@H](Cc1c[nH]cn1)C(=O)N[C@@H](CCCCN)C(=O)N[C@H](C(=O)N[C@H](C(=O)N[C@@H](CC(=O)O)C(=O)O)[C@@H](C)O)[C@@H](C)CC)[C@@H](C)CC [Compound 18] (H-H[Aib]EGTFTSELATILDEQAARDFIAWLISHKITD-OH)
6 | 0.004 nM | 0.041 nM | CC[C@H](C)[C@H](NC(=O)[C@H](CC(C)C)NC(=O)[C@H](Cc1c[nH]c2ccccc12)NC(=O)[C@H](CC(N)=O)NC(=O)[C@@H](NC(=O)[C@H](Cc1ccccc1)NC(=O)[C@H](CC(=O)O)NC(=O)[C@H](CCCNC(=N)N)NC(=O)[C@H](C)NC(=O)[C@H](C)NC(=O)[C@H](CCC(N)=O)NC(=O)[C@H](CCC(=O)O)NC(=O)[C@H](CC(=O)O)NC(=O)[C@H](CC(C)C)NC(=O)[C@@H](NC(=O)[C@@H](NC(=O)[C@H](C)NC(=O)[C@H](CC(C)C)NC(=O)[C@H](CCC(=O)O)NC(=O)[C@H](CO)NC(=O)[C@@H](NC(=O)[C@H](Cc1ccccc1)NC(=O)[C@@H](NC(=O)CNC(=O)[C@H](CCC(=O)O)NC(=O)C(C)(C)NC(=O)[C@@H](N)Cc1c[nH]cn1)[C@@H](C)O)[C@@H](C)O)[C@@H](C)O)[C@@H](C)CC)[C@@H](C)CC)C(=O)N[C@@H](C)C(=O)N[C@@H](Cc1c[nH]cn1)C(=O)N[C@@H](CCCCN)C(=O)N[C@H](C(=O)N[C@H](C(=O)N[C@@H](CC(=O)O)C(=O)O)[C@@H](C)O)[C@@H](C)CC [Compound 33] (H-H[Aib]EGTFTSELATILDEQAARDFINWLIAHKITD-OH)
7 | 0.006 nM | 0.026 nM | CC[C@H](C)[C@H](NC(=O)[C@H](Cc1ccccc1)NC(=O)[C@H](CC(=O)O)NC(=O)[C@H](CCCNC(=N)N)NC(=O)[C@H](C)NC(=O)[C@H](C)NC(=O)[C@H](CCC(N)=O)NC(=O)[C@H](CCC(=O)O)NC(=O)[C@H](CC(=O)O)NC(=O)[C@H](CC(C)C)NC(=O)[C@@H](NC(=O)[C@@H](NC(=O)[C@H](C)NC(=O)[C@H](CC(C)C)NC(=O)[C@H](CCC(=O)O)NC(=O)[C@H](CO)NC(=O)[C@@H](NC(=O)[C@H](Cc1ccccc1)NC(=O)[C@@H](NC(=O)CNC(=O)[C@H](CCC(=O)O)NC(=O)C(C)(C)NC(=O)[C@@H](N)Cc1c[nH]cn1)[C@@H](C)O)[C@@H](C)O)[C@@H](C)O)[C@@H](C)CC)C(=O)N[C@@H](C)C(=O)N[C@@H](Cc1c[nH]c2ccccc12)C(=O)N[C@@H](CC(C)C)C(=O)N[C@H](C(=O)N[C@@H](CCCCN)C(=O)N[C@@H](Cc1c[nH]cn1)C(=O)N[C@@H](CCCCN)C(=O)N[C@H](C(=O)N[C@H](C(=O)N[C@@H](CC(=O)O)C(=O)O)[C@@H](C)O)[C@@H](C)CC)[C@@H](C)CC [Compound 16] (H-H[Aib]EGTFTSELATILDEQAARDFIAWLIKHKITD-OH)
8 | 0.007 nM | 0.041 nM | CC[C@H](C)[C@H](NC(=O)[C@H](CC(C)C)NC(=O)[C@H](Cc1c[nH]c2ccccc12)NC(=O)[C@H](C)NC(=O)[C@@H](NC(=O)[C@H](Cc1ccccc1)NC(=O)[C@H](CC(=O)O)NC(=O)[C@H](CCCNC(=N)N)NC(=O)[C@H](C)NC(=O)[C@H](C)NC(=O)[C@H](CCC(N)=O)NC(=O)[C@H](CCC(=O)O)NC(=O)[C@H](CC(=O)O)NC(=O)[C@H](CC(C)C)NC(=O)[C@@H](NC(=O)[C@@H](NC(=O)[C@H](C)NC(=O)[C@H](CC(C)C)NC(=O)[C@H](CCC(=O)O)NC(=O)[C@H](CC(=O)O)NC(=O)[C@@H](NC(=O)[C@H](Cc1ccccc1)NC(=O)[C@@H](NC(=O)CNC(=O)[C@H](CCC(=O)O)NC(=O)C(C)(C)NC(=O)[C@@H](N)Cc1c[nH]cn1)[C@@H](C)O)[C@@H](C)O)[C@@H](C)O)[C@@H](C)CC)[C@@H](C)CC)C(=O)N[C@@H](C)C(=O)N[C@@H](Cc1c[nH]cn1)C(=O)N[C@@H](CCCCN)C(=O)N[C@H](C(=O)N[C@H](C(=O)N[C@@H](CC(=O)O)C(=O)O)[C@@H](C)O)[C@@H](C)CC [Compound 9] (H-H[Aib]EGTFTDELATILDEQAARDFIAWLIAHKITD-OH)
